# US20150031668A1, “CHROMAN DERIVATIVES AS TRPM8 INHIBITORS” (AMGEN INC., priority 2013, published 2015)
# Counter-ions that a name gives are not always drawn.
# Target: T1, human TRPM8 (Homo sapiens, UniProt Q7Z2W7)
# T1 construct: expressed in transfected cells; host or cells: Chinese hamster ovary (CHO) cells, T-REx tetracycline-inducible expression system (Invitrogen); co-transfected with pcDNA3.1 aequorin
# Assay: Luminescence readout assay for measuring intracellular calcium (aequorin, CHO cells expressing human TRPM8; icilin, L-menthol or cold activation)
# Type: cell-based
# Conditions: CHO cells expressing human TRPM8, icilin activation (1 μM), aequorin luminescence; read-out: hTRPM8 IC50
# How it was run: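 Activation was by 1 μM icilin, 100 μM L-menthol (test compound 2.5 min ahead) or cold buffer below 10° C (compound 1 min ahead). Calcium rise measured as aequorin luminescence in CHO cells with tetracycline-inducible human TRPM8.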
# T1 sequence (Q7Z2W7 whole entry): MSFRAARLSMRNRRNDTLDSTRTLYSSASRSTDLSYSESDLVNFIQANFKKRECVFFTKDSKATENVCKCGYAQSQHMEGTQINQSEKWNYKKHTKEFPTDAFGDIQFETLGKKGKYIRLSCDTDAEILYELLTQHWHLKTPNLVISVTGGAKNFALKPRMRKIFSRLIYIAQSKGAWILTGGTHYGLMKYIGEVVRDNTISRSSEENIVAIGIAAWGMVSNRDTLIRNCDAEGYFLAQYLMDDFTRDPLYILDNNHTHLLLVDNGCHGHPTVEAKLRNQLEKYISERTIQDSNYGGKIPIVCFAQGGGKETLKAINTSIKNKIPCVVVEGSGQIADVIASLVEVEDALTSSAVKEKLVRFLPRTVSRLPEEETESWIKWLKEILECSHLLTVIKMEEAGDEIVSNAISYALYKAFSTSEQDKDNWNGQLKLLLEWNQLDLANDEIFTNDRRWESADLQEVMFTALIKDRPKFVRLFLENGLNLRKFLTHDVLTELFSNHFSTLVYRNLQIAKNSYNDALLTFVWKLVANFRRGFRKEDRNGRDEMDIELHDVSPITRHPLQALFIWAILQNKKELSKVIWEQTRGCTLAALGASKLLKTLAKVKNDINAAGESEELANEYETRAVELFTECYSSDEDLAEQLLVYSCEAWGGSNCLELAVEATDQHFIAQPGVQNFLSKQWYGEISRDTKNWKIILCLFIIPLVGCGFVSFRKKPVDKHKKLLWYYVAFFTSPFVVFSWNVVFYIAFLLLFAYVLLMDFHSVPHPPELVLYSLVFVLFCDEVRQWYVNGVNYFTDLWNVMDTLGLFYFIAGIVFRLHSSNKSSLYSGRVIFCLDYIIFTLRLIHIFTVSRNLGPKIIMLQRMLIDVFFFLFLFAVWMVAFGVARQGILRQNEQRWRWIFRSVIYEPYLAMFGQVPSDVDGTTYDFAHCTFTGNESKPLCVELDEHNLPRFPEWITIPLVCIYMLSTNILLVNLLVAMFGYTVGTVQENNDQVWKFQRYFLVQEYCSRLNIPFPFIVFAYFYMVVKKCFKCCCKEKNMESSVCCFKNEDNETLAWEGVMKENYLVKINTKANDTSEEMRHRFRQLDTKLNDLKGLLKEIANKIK
row,IC50 [nM],SMILES
1,32,"O=C(NC1(c2ccc(OC(F)(F)F)c(F)c2)CCOc2cccnc21)c1ccccc1 (stereo not drawn) [Example 7, N-(4-(3-fluoro-4-(trifluoromethoxy)phenyl)-3,4-dihydro-2H-pyrano[3,2-b]pyridin-4-yl)benzamide]"
2,23,"O=C(N[C@]1(c2ccc(OC(F)(F)F)c(F)c2)CCOc2cccnc21)c1ccc(C(=O)O)c(O)c1 [Example 298, (S)-4-((4-(3-fluoro-4-(trifluoromethoxy)phenyl)-3,4-dihydro-2H-pyrano[3,2-b]pyridin-4-yl)carbamoyl)-2-hydroxybenzoic acid]"
3,266,"COC(=O)c1ccc(NC(=O)N[C@]2(c3ccc(OC(F)(F)F)c(F)c3)CCOc3cccnc32)nc1 [Example 84, (S)-methyl 6-(3-(4-(3-fluoro-4-(trifluoromethoxy)phenyl)-3,4-dihydro-2H-pyrano[3,2-b]pyridin-4-yl)ureido)nicotinate]"
4,39,"O=C(N[C@]1(c2ccc(OC(F)(F)F)c(F)c2)CCOc2cccnc21)c1ccc(C(=O)C(F)(F)F)cc1 [Example 160, (S)—N-(4-(3-fluoro-4-(trifluoromethoxy)phenyl)-3,4-dihydro-2H-pyrano[3,2-b]pyridin-4-yl)-4-(2,2,2-trifluoroacetyl)benzamide 2,2,2-trifluoroacetate]"
5,103,"Cn1c(C(=O)O)ccc1C(=O)N[C@]1(c2ccc(OC(F)(F)F)c(F)c2)CCOc2cccnc21 [Example 324, (S)-5-((4-(3-fluoro-4-(trifluoro-methoxy)phenyl)-3,4-dihydro-2H-pyrano[3,2-b]pyridin-4-yl)carbamoyl)-1-methyl-1H-pyrrole-2-carboxylic acid]"
6,81,"O=C(N[C@]1(c2ccc(OC(F)(F)F)cc2)CCOc2cccnc21)c1ccns1 [Example 213, (S)-N-(4-(4-(trifluoromethoxy)phenyl)-3,4-dihydro-2H-pyrano[3,2-b]pyridin-4-yl)isothiazole-5-carboxamide formate]"
7,54,"O=C(Nc1cccnc1)N[C@]1(c2ccc(OC(F)(F)F)c(F)c2)CCOc2cccnc21 [Example 92, (S)-1-(4-(3-fluoro-4-(trifluoromethoxy)phenyl)-3,4-dihydro-2H-pyrano[3,2-b]pyridin-4-yl)-3-(pyridin-3-yl)urea]"
8,99,"O=C(N[C@]1(c2ccc(OC(F)(F)F)cc2)CCOc2cccnc21)c1cccc2cnccc12 [Example 249, (S)-N-(4-(4-(trifluoromethoxy)phenyl)-3,4-dihydro-2H-pyrano[3,2-b]pyridin-4-yl)isoquinoline-5-carboxamide formate]"
9,16,"O=C(N[C@]1(c2ccc(OC(F)(F)F)cc2)CCOc2cccnc21)c1cc2n(n1)CCCO2 [Example 220, (S)-N-(4-(4-(trifluoromethoxy)phenyl)-3,4-dihydro-2H-pyrano[3,2-b]pyridin-4-yl)-6,7-dihydro-5H-pyrazolo[5,1-b] [1,3]oxazine-2-carboxamide formate]"
10,105,"Cn1nccc1C(=O)N[C@]1(c2ccc(OC(F)(F)F)cc2)CCOc2cccnc21 [Example 228, (S)-1-methyl-N-(4-(4-(trifluoromethoxy)phenyl)-3,4-dihydro-2H-pyrano[3,2-b]pyridin-4-yl)-lH-pyrazole-5-carboxamide formate_]"
11,51,"O=C(N[C@]1(c2ccc(OC(F)(F)F)c(F)c2)CCOc2cccnc21)c1ccc(-c2nn[nH]n2)cn1 [Example 281, (S)—N-(4-(3-fluoro-4-(trifluoromethoxy)phenyl)-3,4-dihydro-2H-pyrano[3,2-b]pyridin-4-yl)-5-(2H-tetrazol-5-yl)picolinamide]"
12,176,"Nc1ccccc1-c1ccc([C@@]2(NC(=O)c3ccc(F)cc3)CCOc3cccnc32)cc1 [Example 143, (S)-N-(4-(2′-amino-[1,1′-biphenyl]-4-yl)-3,4-dihydro-2H-pyrano[3,2-b]pyridin-4-yl)-4-fluorobenzamide]"
13,34.6,"O=C(N[C@]1(c2ccc(OC(F)(F)F)cc2)CCOc2cccnc21)c1cn2ccccc2n1 [Example 239, (S)-N-(4-(4-(trifluoromethoxy)phenyl)-3,4-dihydro-2H-pyrano[3,2-b]pyridin-4-yl)imidazo[1,2-a] pyridine-2-carboxamide formate]"
14,51,"O=C(N[C@]1(c2ccc(OC(F)(F)F)c(F)c2)CCOc2cccnc21)c1ccc([N+](=O)[O-])cn1 [Example 62, (S)-N-(4-(3-fluoro-4-(trifluoromethoxy)phenyl)-3,4-dihydro-2H-pyrano[3,2-b]pyridin-4-yl)-5-nitropicolinamide]"
15,11,"O=C(N[C@]1(c2ccc(OC(F)(F)F)cc2)CCOc2cccnc21)c1cc2ccccn2n1 [Example 219, (S)-N-(4-(4-(trifluoromethoxy)phenyl)-3,4-dihydro-2H-pyrano[3,2-b]pyridin-4-yl) pyrazolo[1,5-a] pyridine-2-carboxainide formate]"
16,45.2,"O=C(N[C@]1(c2ccc(OC(F)(F)F)cc2)CCOc2cccnc21)c1cscn1 [Example 231, (S)-N-(4-(4-(trifluoromethoxy)phenyl)-3,4-dihydro-2H-pyrano[3,2-b]pyridin-4-yl)thiazole-4-carboxamide formate]"
17,134,"O=C(N[C@]1(c2ccc(OC(F)(F)F)c(F)c2)CCOc2cccnc21)c1ncco1 [Example 189, (S)-N-(4-(3-fluoro-4-(trifluoromethoxy)phenyl)-3,4-dihydro-2H-pyrano[3,2-b]pyridin-4-yl) oxazole-2-carboxamide]"
18,335,"O=C(N[C@]1(c2ccc(OC(F)(F)F)c(F)c2)CCOc2cccnc21)c1ccc2[nH]c(=O)c(=O)[nH]c2c1 [Example 64, (S)—N-(4-(3-fluoro-4-(trifluoromethoxy)phenyl)-3,4-dihydro-2H-pyrano[3,2-b]pyridin-4-yl)-2,3-dioxo-1,2,3,4-tetrahydroquinoxaline-6-carboxamide]"
19,159,"O=C(O)c1ccc(C(=O)N[C@]2(c3ccc(OC(F)(F)F)c(F)c3)CCOc3cccnc32)[nH]1 [Example 306, (S)-5-((4-(3-fluoro-4-(trifluoromethoxy)phenyl)-3,4-dihydro-2H-pyrano[3,2-b]pyridin-4-yl)carbamoyl)-1H-pyrrole-2-carboxylic acid]"
20,162,"Cc1ccc([C@@]2(NC(=O)c3ccccc3)CCOc3cccnc32)cc1 (single isomer, unassigned) [Example 18]"
21,266,Cc1[nH]c(C(=O)N[C@]2(c3ccc(OC(F)(F)F)c(F)c3)CCOc3cccnc32)cc1C(=O)O [Example 301]
22,25,"O=C(N[C@]1(c2ccc(Cl)c(Cl)c2)CCOc2cccnc21)c1ccccc1 (single isomer, unassigned) [Example 3]"
23,88,"O=C(N[C@]1(c2ccc(OC(F)(F)F)cc2)CCOc2cccnc21)C1=Cc2ccccc2OC1 [Example 259, (S)-N-(4-(4-(trifluoromethoxy)phenyl)-3,4-dihydro-2H-pyrano[3,2-b]pyridin-4-yl)-2H-chromene-3-carboxamide formate]"
24,37,"O=C(N[C@]1(c2ccc(OC(F)(F)F)cc2)CCOc2cccnc21)c1cc2ccccc2s1 [Example 267, (S)-N-(4-(4-(trifluoromethoxy)phenyl)-3,4-dihydro-2H-pyrano[3,2-b]pyridin-4-yl) benzo[b]thiophene-2-carboxamide formate]"
